Experimental data: paper PMC10451377, “Rationally Designed Pyrimidine Compounds: Promising Novel Antibiotics for the Treatment of Staphylococcus aureus-Associated Bovine Mastitis” (Antibiotics, 2023)
In brackets after ≈: the same amount, converted by molar mass.

Experiments:
[1] = system: all tested bacterial strains, including non-staphylococci strains; assay: Broth microdilution MIC, summary over all strains tested; details: read-out: MIC of DTT
[2] = system: Escherichia coli ΔlptD4213; assay: microbe, parasite or virus in culture; assay type: cell-based; details: read-out: Broth Microdilution MIC
Description: Reference strains for this study (S. aureus ATCC 29213, ATCC 29740 [bovine mastitis strain Newbould], S. epidermidis ATCC 12228, E. coli ATCC 35695, E. faecalis ATCC 29212) were obtained from the American Type Culture Collection (ATCC, Rockville, MD). S. aureus strains CMRSA-10 and CMRSA-2 were obtained from the Laboratoire de santé publique du Québec (LSPQ, Sainte-Anne-de-Bellevue, QC, Canada) and are Canadian CA-MRSA USA-300 and HA-MRSA USA-100 clones, respectively. The strain E. coli imp4213 (lptD), used as a control in MIC assays, is a derivative of E. coli ATCC 35695 (E. coli MC4100) with an increased membrane permeability. […] Other MRSA strains used in this study are clinical isolates of human origin obtained from the microbiology laboratory of the Centre Hospitalier Universitaire de Sherbrooke (CHUS, Sherbrooke, QC, Canada). Bovine mastitis strains (S. aureus, S. chromogenes, S. haemolyticus, S. hominis, S. simulans) were obtained from the Canadian Bovine Mastitis and Milk Quality Research Network (CBRQMN, St-Hyacinthe, QC, Canada). Among these strains, S. aureus 2117 is a high producer of biofilm and was used in the biofilm-eradication assay. S. epidermidis isolates were provided by Centre de Recherche en Infectiologie (CRI) de Québec (Québec, QC, Canada).

[3] = system: Escherichia coli ATCC 35695; assay: Broth microdilution MIC; details: ATCC35695, read-out: Broth Microdilution MIC
[4] = system: S. aureus bovine strain 2117 embedded in preformed biofilm; assay: Biofilm-eradication test (MBEC assay); assay type: cell-based, Staphylococcus aureus; details: 24 h preformed biofilm
Method: The viability of bacteria in preformed biofilms treated with PC206 was evaluated using the MBEC assay™ system (formerly the Calgary Biofilm Device). The device consists of a plastic lid with 96 pegs and a 96-well plate. […] Plates were incubated at 35 °C for 24 h with agitation (120 rpm). […] The pegs were washed three times with PBS and the biofilm was sonicated for 10 min, and then transferred into a new 96-well base plate. The 96-well plate was centrifuged for 5 min at 180 g to recover the detached bacteria.

[5] = system: guanine riboswitch-lacZ fusion construct (xpt-lacZ); assay: Riboswitch regulation assay (lacZ-gene reporter); assay type: cell-based, B. subtilis; details: concentration as low as 1 µg/mL
Description: The novel pyrimidine compounds, especially PC206, display specificity and potency against some staphylococci but not the other bacterial genus (Table 1 and Table 2). Because they are structurally derived from PC1 and PC2, these novel antibiotic candidates are expected to have the same mode of action. […] To verify this hypothesis, a strain of B. subtilis with a guanine riboswitch-lacZ fusion construct (named xpt-lacZ) integrated in its chromosome was exposed to these new antimicrobials. […] Therefore, it is an adequate reporter species. The metabolization of substrate ONPG into colored ONP was normalized by the bacterial suspension absorbance at 600 nm (Miller units) and relativized to the untreated condition.
β-galactosidase gene expression in the presence of the new pyrimidine analogs was studied, using an xpt-lacZ transcriptional fusion construct integrated in the genome of B. subtilis as previously described. Briefly, cultures were grown for 5 h at 35 °C in CAMHB, from an initial optical density of 0.05 at 600 nm (OD600), and then diluted 1:20 and in the presence of different concentrations of the compounds tested. Cultures were centrifuged for 10 min at 13,100 rpm, the supernatant was discarded, and pellets were suspended in a Z-buffer (NaH2PO4 40 mM, Na2HPO4 60 mM, MgSO4 1 mM, KCl 10 mM). Cultures OD600 were measured, and bacteria were then lysed with lysozyme (1 mg/mL) and β-mercaptoethanol 50 mM for 30 min. Lysates were centrifuged for 10 min at 13,100 rpm, and supernatants were incubated for 5 min at 30 °C with the substrate orthonitrophenyl-β-galactoside (ONPG; Sigma Aldrich). Reactions were stopped with Na2CO3 1M, supernatants OD420 were measured, and Miller units were calculated. A decrease in β-galactosidase activity indicated binding of the test compound to the riboswitch. Guanine and oxacillin were used as […] controls, respectively. The formula to measure Miller units is as follows: Millerunits=1000×OD420/t·v·OD600
Here, t represents the time of incubation with ONPG, and v represents the volume of the reaction.

## O[C@@H](CS)[C@@H](O)CS (racemic) [DTT, dithiothreitol, reference compound]
[1]
  MIC: > 75 mM

## CC(C)(O/N=C(\C(=O)N[C@@H]1C(=O)N2C(C(=O)[O-])=C(C[n+]3ccccc3)CS[C@H]12)c1csc(N)n1)C(=O)O [CAZ, ceftazidime, reference compound]
[2]
  MIC: 0.03 µg/mL (≈ 0.0549 µM)
[3]
  MIC: 0.25 µg/mL (≈ 0.457 µM)

## CNC(C)C1CCC(N)C(OC2C(N)CC(N)C(OC3OCC(C)(O)C(NC)C3O)C2O)O1 (centres unmarked) [Gentamicin, reference compound]
[4]
  Lowest concentration that significantly reduced CFU/peg: 2 µg/mL

## Nc1nc2nc[nH]c2c(=O)[nH]1 [Guanine, reference compound]
[5]
  Effect on lacZ expression: strongly inhibited lacZ expression
